Test results taken from ChEMBL document CHEMBL1201862, “PubChem BioAssay data set” (2004).
Active and inactive are the calls of the source.

How the values were obtained:
[1] = biological target: T1, Zinc finger protein mex-5 (Caenorhabditis elegans, UniProt Q9XUB2); test: potency of MEX-5 RNA-binding blockers – biochemical, C. elegans, fluorescence polarization, dose response (AID 1960)
T1 sequence (Q9XUB2 whole entry): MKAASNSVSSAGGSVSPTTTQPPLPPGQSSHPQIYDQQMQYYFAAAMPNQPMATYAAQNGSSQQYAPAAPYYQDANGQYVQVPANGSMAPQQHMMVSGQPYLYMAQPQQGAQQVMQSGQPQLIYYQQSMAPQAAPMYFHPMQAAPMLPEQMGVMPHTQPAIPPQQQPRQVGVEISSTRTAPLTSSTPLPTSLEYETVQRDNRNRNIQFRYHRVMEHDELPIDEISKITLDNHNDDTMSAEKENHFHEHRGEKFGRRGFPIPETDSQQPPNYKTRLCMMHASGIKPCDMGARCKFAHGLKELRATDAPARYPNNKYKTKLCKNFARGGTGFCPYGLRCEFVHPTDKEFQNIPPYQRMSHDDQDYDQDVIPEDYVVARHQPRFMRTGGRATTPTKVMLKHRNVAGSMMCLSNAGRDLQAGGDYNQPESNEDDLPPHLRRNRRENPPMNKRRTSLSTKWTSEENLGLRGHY

Escherichia coli [2] = test: microbe, parasite or virus in culture
[3] = biological target: T2, RNA-binding protein pos-1 (Caenorhabditis elegans, UniProt G5EF15); test: disruptors of C. elegans POS-1 RNA interaction – biochemical, fluorescence polarization, dose response (AID 1964);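 further: purified POS-1 fused to maltose binding protein made in E. coli; potency of compounds blocking POS-1 binding to fluorescent RNA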
T2 sequence (G5EF15 whole entry): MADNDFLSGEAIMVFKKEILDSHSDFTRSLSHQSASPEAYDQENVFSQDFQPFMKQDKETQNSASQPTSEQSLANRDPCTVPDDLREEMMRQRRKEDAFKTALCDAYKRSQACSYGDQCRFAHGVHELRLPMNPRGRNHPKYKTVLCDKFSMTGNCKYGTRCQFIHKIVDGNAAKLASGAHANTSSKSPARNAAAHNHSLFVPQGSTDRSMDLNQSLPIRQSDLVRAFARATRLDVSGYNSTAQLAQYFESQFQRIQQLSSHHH

HeLa = test: viability loss in HeLa cells – cell-based, 24 h, cherry-picked samples, cytotoxicity control, dose response (AID 504726); format: functional; settings: Homo sapiens;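 further: potency for cytotoxicity as loss of luminescence signal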
Escherichia coli [4] = test: microbe, parasite or virus in culture; remark: listed apart in the source
Beta-lactamase [5] = biological target: Beta-lactamase (Salmonella choleraesuis (strain SC-B67), UniProt Q5J463)
Chain of Beta-lactamase (Salmonella choleraesuis (strain SC-B67), UniProt Q5J463) (Q5J463 whole entry): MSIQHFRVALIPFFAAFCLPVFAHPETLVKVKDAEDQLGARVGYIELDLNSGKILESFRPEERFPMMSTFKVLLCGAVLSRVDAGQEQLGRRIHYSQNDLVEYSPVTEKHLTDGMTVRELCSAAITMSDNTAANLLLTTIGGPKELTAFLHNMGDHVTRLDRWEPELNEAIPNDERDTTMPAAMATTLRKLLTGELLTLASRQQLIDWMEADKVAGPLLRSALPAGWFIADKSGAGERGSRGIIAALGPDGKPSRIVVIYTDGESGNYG

Beta-lactamase [6] = biological target: Beta-lactamase (Pseudomonas aeruginosa, UniProt Q79MP6);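 further: biochemical dose-response test of metallo-beta-lactamase enzyme inhibition, read out by epi-absorbance; purified recombinant IMP-1 metallo-beta-lactamase with nitrocefin as substrate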
Chain of Beta-lactamase (Pseudomonas aeruginosa, UniProt Q79MP6) (Q79MP6 whole entry): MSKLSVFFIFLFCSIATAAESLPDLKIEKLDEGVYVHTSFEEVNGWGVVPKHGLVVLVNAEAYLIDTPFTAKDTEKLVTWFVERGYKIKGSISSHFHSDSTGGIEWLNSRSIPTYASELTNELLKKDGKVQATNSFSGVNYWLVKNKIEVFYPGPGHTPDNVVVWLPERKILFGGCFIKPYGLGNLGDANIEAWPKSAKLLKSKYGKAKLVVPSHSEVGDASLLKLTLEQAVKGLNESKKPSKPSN

Insulin-degrading enzyme [7] = biological target: T3, Insulin-degrading enzyme (Homo sapiens, UniProt P14735); test: recombinant IDE activation, cell-free – biochemical, fluorescence polarization, counter-screen for IDE activator project, dose response (AID 588681)
T3 sequence (P14735 whole entry): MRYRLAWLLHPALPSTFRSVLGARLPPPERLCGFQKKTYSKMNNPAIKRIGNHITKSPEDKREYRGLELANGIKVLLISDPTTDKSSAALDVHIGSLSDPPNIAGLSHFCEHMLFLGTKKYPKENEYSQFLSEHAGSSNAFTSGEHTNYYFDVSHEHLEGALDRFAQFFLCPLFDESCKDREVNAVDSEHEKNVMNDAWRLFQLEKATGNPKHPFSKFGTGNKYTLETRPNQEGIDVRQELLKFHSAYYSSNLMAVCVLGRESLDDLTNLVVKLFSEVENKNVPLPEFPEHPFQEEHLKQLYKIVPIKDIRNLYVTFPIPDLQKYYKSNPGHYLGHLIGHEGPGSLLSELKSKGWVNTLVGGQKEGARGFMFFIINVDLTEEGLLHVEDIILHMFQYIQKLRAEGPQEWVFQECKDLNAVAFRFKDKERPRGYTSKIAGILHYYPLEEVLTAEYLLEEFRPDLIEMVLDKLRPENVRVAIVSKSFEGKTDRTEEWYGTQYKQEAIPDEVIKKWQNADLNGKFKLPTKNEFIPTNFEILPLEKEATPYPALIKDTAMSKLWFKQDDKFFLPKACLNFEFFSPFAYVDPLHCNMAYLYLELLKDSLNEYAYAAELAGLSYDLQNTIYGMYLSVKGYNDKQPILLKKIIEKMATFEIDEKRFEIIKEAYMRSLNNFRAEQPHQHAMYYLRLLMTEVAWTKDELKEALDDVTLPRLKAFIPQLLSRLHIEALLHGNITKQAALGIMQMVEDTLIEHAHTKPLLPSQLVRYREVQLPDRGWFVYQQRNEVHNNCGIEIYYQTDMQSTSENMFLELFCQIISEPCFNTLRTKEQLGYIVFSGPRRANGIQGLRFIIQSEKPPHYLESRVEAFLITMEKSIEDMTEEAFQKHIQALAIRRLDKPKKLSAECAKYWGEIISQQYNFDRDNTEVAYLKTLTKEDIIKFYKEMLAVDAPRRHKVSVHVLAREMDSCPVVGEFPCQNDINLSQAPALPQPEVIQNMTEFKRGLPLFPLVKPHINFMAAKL

Insulin-degrading enzyme [8] = biological target: T3, Insulin-degrading enzyme; test: cellular IDE activation of Abeta substrate cleavage – fluorescence polarization, HEK cells, dose response (AID 588439); format: functional, cell-based
Keap1/Nrf2 = Keap1/Nrf2 (Homo sapiens, UniProt Q14145); test: disruptors of Keap1 binding to Nrf2 peptide – biochemical, fluorescence polarization, cherry-picked samples, dose response (AID 588683)
Chain of Keap1/Nrf2 (Q16236 whole entry): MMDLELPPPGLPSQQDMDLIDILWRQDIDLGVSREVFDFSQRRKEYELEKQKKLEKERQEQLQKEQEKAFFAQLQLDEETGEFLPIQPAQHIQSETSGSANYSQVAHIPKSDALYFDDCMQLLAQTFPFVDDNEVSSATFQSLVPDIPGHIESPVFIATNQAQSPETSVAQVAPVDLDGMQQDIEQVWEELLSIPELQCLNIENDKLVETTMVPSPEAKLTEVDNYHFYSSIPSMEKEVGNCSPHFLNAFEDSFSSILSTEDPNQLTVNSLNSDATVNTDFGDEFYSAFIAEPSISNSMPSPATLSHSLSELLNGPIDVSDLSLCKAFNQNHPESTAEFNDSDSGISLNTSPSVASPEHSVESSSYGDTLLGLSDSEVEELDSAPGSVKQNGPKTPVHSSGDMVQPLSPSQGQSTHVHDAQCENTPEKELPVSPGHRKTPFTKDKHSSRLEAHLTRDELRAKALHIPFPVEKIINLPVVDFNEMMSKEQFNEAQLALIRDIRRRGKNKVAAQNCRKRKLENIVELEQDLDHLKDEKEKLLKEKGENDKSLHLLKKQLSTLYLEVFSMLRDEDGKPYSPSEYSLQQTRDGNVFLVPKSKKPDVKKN
Chain of Keap1/Nrf2 (Q14145 whole entry): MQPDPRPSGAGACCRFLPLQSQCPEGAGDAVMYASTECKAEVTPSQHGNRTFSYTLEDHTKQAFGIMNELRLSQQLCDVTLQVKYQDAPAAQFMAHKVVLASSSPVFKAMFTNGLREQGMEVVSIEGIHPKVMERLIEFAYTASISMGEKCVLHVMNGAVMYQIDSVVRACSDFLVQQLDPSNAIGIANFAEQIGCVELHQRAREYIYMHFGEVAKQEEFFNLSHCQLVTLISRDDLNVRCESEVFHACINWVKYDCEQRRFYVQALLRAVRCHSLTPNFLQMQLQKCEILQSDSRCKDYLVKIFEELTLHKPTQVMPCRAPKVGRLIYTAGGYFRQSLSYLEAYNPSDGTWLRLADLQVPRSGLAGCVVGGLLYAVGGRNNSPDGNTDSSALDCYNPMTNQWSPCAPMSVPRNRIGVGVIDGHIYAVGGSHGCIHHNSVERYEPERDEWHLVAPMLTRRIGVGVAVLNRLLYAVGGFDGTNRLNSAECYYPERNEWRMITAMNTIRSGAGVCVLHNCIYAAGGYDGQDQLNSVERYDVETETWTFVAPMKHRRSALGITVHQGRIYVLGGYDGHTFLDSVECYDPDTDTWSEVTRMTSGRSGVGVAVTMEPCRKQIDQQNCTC

HEK293 [9] = test: membrane integrity loss in HEK cells – cell-based, fluorescence, cytotoxicity control for IDE activator project, dose response (AID 588440); format: functional; settings: Homo sapiens;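 further: cytotoxicity by LDH release measuring loss of membrane integrity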
HEK293 [10] = test: optical interference in Abeta FP readout, dose response, artefact control for IDE activator project, biochemical, fluorescence polarization (AID 588442); format: functional, cell-based; settings: Homo sapiens
ORF 73 = ORF 73 (Human herpesvirus 8, UniProt O40947); test: KSHV LANA DNA-binding disruption – biochemical, fluorescence polarization, cherry-picked samples, dose response (AID 504725); set-up: species or system Human gammaherpesvirus 8;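 further: fluorescence polarization of a labeled DNA duplex reporting LANA DNA binding; potency is for inhibitors that block LANA binding to the DNA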
Phospholipase D1 = Phospholipase D1 (Homo sapiens, UniProt Q13393); test: cellular phospholipase D1 inhibition IC50 – cell-based, dose response (AID 602151); format: functional;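 further: cellular PLD1 assay in Calu-1 cells stimulated with PMA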
Chain of Phospholipase D1 (Q13393 whole entry): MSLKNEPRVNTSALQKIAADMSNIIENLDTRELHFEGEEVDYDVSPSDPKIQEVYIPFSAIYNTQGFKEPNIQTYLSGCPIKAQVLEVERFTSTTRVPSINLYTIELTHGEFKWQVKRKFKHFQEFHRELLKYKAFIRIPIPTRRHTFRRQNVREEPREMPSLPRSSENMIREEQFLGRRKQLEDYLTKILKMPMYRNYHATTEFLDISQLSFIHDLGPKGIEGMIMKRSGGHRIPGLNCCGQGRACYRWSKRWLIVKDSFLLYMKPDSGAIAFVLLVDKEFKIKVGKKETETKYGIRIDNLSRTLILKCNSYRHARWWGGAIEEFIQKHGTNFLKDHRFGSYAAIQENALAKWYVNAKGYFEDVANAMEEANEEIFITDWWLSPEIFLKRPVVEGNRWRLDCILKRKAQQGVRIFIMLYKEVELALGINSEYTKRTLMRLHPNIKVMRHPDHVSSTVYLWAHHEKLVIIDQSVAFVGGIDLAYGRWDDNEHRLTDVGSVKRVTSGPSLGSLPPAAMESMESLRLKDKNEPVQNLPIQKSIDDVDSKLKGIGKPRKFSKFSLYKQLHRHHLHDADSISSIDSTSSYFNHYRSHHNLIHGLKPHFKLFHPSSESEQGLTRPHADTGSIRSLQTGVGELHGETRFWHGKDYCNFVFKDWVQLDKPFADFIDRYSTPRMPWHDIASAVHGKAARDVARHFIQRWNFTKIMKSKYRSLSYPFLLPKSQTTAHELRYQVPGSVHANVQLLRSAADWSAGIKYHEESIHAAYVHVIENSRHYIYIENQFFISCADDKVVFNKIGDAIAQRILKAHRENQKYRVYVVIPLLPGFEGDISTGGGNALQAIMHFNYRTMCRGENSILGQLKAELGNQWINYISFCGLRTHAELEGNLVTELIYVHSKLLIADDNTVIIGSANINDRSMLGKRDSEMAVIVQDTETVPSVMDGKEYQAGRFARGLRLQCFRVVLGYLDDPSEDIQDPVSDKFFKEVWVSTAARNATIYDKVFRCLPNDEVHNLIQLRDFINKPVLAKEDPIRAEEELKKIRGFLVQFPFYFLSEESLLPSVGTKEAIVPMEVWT

Phospholipase D2 = Phospholipase D2 (Homo sapiens, UniProt O14939); test: cellular phospholipase D2 inhibition IC50 – cell-based, dose response (AID 602147); format: functional;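 further: cellular assay in HEK293 cells overexpressing GFP-tagged PLD2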
Chain of Phospholipase D2 (O14939 whole entry): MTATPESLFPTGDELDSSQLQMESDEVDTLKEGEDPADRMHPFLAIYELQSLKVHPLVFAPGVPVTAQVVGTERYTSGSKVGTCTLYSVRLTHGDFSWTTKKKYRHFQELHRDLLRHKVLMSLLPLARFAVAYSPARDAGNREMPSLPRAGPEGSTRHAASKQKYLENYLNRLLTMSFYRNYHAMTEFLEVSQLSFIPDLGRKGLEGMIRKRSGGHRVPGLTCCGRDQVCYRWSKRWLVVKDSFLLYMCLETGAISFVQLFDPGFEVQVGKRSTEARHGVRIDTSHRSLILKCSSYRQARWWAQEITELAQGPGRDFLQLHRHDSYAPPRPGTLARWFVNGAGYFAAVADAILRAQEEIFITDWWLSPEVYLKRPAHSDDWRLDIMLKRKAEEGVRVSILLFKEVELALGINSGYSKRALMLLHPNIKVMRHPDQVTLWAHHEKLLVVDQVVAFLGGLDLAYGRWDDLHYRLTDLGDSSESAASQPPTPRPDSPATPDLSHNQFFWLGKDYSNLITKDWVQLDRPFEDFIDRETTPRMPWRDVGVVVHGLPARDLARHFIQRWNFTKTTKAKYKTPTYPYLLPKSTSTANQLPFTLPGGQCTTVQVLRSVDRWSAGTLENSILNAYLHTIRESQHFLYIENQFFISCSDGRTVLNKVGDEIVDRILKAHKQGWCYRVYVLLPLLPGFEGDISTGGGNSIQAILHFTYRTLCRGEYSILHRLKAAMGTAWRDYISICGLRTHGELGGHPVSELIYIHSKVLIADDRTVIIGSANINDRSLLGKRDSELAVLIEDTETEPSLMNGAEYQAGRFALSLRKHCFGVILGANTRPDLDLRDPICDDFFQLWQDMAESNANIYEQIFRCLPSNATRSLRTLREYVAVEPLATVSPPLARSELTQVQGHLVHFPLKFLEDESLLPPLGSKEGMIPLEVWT

[11] = biological target: Voltage-gated inwardly rectifying potassium channel KCNH2 (Homo sapiens, UniProt Q12809); settings: Potency;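 further: confirmatory quantitative high-throughput screen measuring inhibition of hERG channel activity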
[12] = viability of uninfected HEp-2 cells – cell-based, HTS, cytotoxicity control for RSV inhibitor project, dose response (AID 2410); format: functional; settings: human respiratory syncytial virus

For `CN(C)C1C(=O)C(C(N)=O)=C(O)C2(O)C(O)=C3C(=O)c4c(O)cccc4C(C)(O)C3C(O)C12` (configuration not stated), the EC50 [1] was 29.9 µM (inconclusive), the AC50 (Escherichia coli [2]) was < 0.3 µM (active) and the EC50 [3] was 65.8 µM (active). For the same compound, the AC50 (HeLa) was 54.2 µM (active) and the AC50 (Escherichia coli [4]) was 14.9 µM (active).
With `CNc1ccc2c3c(cccc13)C(=O)N(C)C2=O` the IC50 (Beta-lactamase [5]) was 2.2 µM (active), the IC50 (Beta-lactamase [6]) was 3.92 µM (active) and the EC50 (Insulin-degrading enzyme [7]) was > 54.8 µM (inactive). For the same compound, the EC50 (Insulin-degrading enzyme [8]) was > 54.8 µM (inactive), the AC50 (Keap1/Nrf2) was 0.399 µM (active) and the IC50 (HEK293 [9]) was > 89.3 µM (inactive). For the same compound, the EC50 (HEK293 [10]) was 6.57 µM (active) and the AC50 (ORF 73) was 0.588 µM (active).
With `O=C(NCCN1CCC2(CC1)C(=O)NCN2c1ccccc1)c1ncc(F)cc1F` the IC50 (Phospholipase D1) was 20 µM (active) and the IC50 (Phospholipase D2) was 5.4 µM (active).
In the case of `CCCCOc1cc(CC2CNC(=O)N2)ccc1OC` (configuration not stated) [RO-201724], the AC50 [11] is reported as 3.55 µM (inconclusive) and the CC50 [12] is reported as 23.8 µM (active).
